Converted amounts (≈) assume the structure as drawn. “And” between values parts separate entries of the source, which are not always exact repeats. Equal entries are not always repeated. Structures can show the parent of a compound that is named as a salt. Where two headings read alike, the source gives them in different places. Each block holds one compound with its values, some of them ahead of it.
Assays:
[1] = Solubility in water and in water-ethanol mixtures; type: physicochemical
Pig pancreas trypsin [2] = molecular target: T1, Pig pancreas trypsin (Sus scrofa, UniProt P00761); settings: for comparison purposes; cited from earlier work
[3] = Excitation and emission spectra of substrates and hydrolysis products (Table 1); type: physicochemical; settings: 10^-7 M in Tris buffer, pH 7.8
Leucine aminopeptidase = settings: known substrates, for comparison; medium with organic solvent; cited from earlier work
[4] = Excitation and emission spectra of ATC derivatives (Table 4); type: physicochemical; settings: 10^-7 M, Z-Arg-ATC in 50 mM Tris pH 8, 10 mM CaCl2
Experimental: The excitation and emission spectra of ATC and Z-Arg-ATC were plotted on the basis of 10^-7 M solutions in the 50 mM Tris buffer at pH 8 containing 10 mM of CaCl2. The maxima obtained are indicated in table 4 with the corresponding maxima of Leu-ATC.

Pig pancreas trypsin [5] = molecular target: T1, Pig pancreas trypsin; assay: Hydrolysis of substrate by trypsin, Michaelis kinetics; type: biochemical
Experimental: Crystalline Z-Arg-ATC hydrochloride (Seratec): 10^-3 M solution in Tris buffer, pH 8.0+CACl2, 10 mM.
Pig pancreas trypsin (SIGMA T0134): 10^-3 M solution in Tris buffer, pH 8.0+CACl2, 10 mM.
Tris buffer: solution A: 0.2M Tris, i.e. 24.23 g/l+CaCl2, 40 mM, i.e. 5.88 g/l; solution B: 0.1M HCl.
This buffer is prepared by mixing 250 ml of solution A with 268 ml of solution B and by topping up to 1 liter with water.
Acetate buffer: solution A: 0.02M acetic acid; solution B: 0.02M sodium acetate.
This buffer is prepared by mixing volume by volume solutions A and B to obtain a buffer at pH 4.75.
Aqueous 1.17N perchloric acid solution (1/10 dilution of pure acid).
The following substrate concentration range was prepared in tubes: 0-0.2-0.5-1-2-5-10×10^-4 M (final concentration).
To each tube was added a concentration of 6.67 μg/ml of trypsin, everything being dissolved in the Tris buffer pH 8.0+CaCl2, 10 mM and at ambient temperature. The enzyme is added at time 0. After 2 minutes, 250 μl are removed from each tube and poured into tubes containing 250 μl of 1.17N perchloric acid and 500 μl of water. The tubes are centrifuged and then the solution is diluted to 1/250 in the acetate buffer. The same operation is repeated at 17 min. The fluorescence intensity is measured at 380/490nm. The difference of the intensities at 17 and 2 min constitutes the signal.
The corresponding ATC concentration is calculated compared with a calibration range from 5×10^-9 to 2×10^-7 M.
This was followed by the determination of Km, Vm, kcat and the ratio kcat/Km. The results obtained are given in table 6, which also gives for comparison purposes the values obtained with Z-L-Arg-AMC and Bz DL Arg-AMC and Bz -L-Arg-AMC.

Pig pancreas trypsin [6] = molecular target: T1, Pig pancreas trypsin; assay: Determination of trypsin, analytical characteristics; type: biochemical
Experimental: Six calibration ranges containing a final enzyme concentration of 0-0.42-0.84-1.67-3.33-6.67 μg/ml were prepared. Each calibration curve was determined by linear regression. The mean standard deviation is 2.45×10^-3 ±0.003×10^-3 for the gradient and 4.80×10^-3 ±2.53×10^-3 for the intercept The linearity test is significant at the 5% threshold (W=0.245). The quantification limit, calculated by the ratio 3σb /a is 0.05 μg/ml. The repeatability, evaluated by the variation coefficient, is 9.4% at 0.42 μg/ml, 5.9% at 0.84 μg/ml and 1.3% at 6.67 μg/ml.

[7] = water, read-out: Solubility in water
[8] = enzyme 0-6.67 μg/ml, linear regression

T1 sequence (P00761 9-231): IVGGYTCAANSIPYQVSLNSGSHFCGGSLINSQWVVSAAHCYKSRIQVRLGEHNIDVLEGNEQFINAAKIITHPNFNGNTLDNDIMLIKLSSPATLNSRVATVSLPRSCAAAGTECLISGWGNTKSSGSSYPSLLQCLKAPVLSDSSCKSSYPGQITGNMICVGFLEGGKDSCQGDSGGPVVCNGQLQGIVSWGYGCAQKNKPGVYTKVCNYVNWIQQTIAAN

solubility ([1]; ethanol:water 30:70, organic solvent or mixture, read-out: Solubility in ethanol:water mixture (30:70)): 3 mg/mL (≈ 8.03 mM) | solubility [1, 7]: 0.2 mg/mL (≈ 0.536 mM)
Structure (SMILES): COCCOCCOCc1cc(=O)oc2c3c4c(cc12)CCCN4CCC3 [Compound 7, 2,3,6,7-tetrahydro-9-(2',5',8'-trioxanonyl)-1H, 5H, 11H-(1)-benzopyrano-(6,7,8-ij)-quinolizinone-11]

Structure (SMILES): Cc1cc(=O)oc2cc(NC(=O)[C@H](CCCNC(=N)N)NC(=O)c3ccccc3)ccc12 [Bz--L--Arg--AMC]
Km (Pig pancreas trypsin [2]): 110 µM | kcat (Pig pancreas trypsin [2]): 0.42 s⁻¹ | kcat/Km (Pig pancreas trypsin [2]): 3800 M⁻¹ s⁻¹

Structure (SMILES): N=C(N)NCCC[C@H](NC(=O)CNC(=O)CN)C(=O)Nc1ccc2c(CS(=O)(=O)O)cc(=O)oc2c1 [GlyGly Arg AMCS, reference compound]
Maximum excitation wavelength, substrate [3]: 336 nm | Maximum fluorescence wavelength, substrate [3]: 409 nm

solubility ([1]; water-ethanol 90:10, organic solvent or mixture, read-out: Solubility in the water-ethanol mixture (90:10)): 7 mg/mL (≈ 23.8 mM) | solubility [1, 7]: 1 mg/mL (≈ 3.4 mM)
Structure (SMILES): COCCOCCOCc1cc(=O)oc2cc(O)ccc12 [Compound 10, 7-hydroxy-4-(2',5',8'-trioxanonyl)coumarin]

Structure (SMILES): CC(C)C[C@H](N)C(=O)Nc1ccc2ccccc2c1 [Leu-βnaphthylamide]
Km (Leucine aminopeptidase): 150 µM | Vm (Leucine aminopeptidase): 5.5 μmole/mg Ez/min

excitation maximum, substrate [4]: 355 nm | fluorescence maximum, substrate ([4]; hydrochloride): 415 nm and 450 nm | Vm (Pig pancreas trypsin [5]; Tris buffer pH 8.0 + CaCl2 10 mM, ambient temperature): 474 nmole/min/mg Ez | ATC hydrolysis solution (Pig pancreas trypsin [5]; substrate 0.2×10^-4 M): 0.224 µM/min | ATC working solution (Pig pancreas trypsin [5]; substrate 0.2×10^-4 M): 3.36 nM | IF(17)-IF(2) (Pig pancreas trypsin [5]; substrate 0.2×10^-4 M): 3.7 | ATC hydrolysis solution (Pig pancreas trypsin [5]; substrate 0.5×10^-4 M): 0.467 µM/min | ATC working solution (Pig pancreas trypsin [5]; substrate 0.5×10^-4 M): 7.00 nM | IF(17)-IF(2) (Pig pancreas trypsin [5]; substrate 0.5×10^-4 M): 7.7 | ATC hydrolysis solution (Pig pancreas trypsin [5]; substrate 1×10^-4 M): 1.03 µM/min | ATC working solution (Pig pancreas trypsin [5]; substrate 1×10^-4 M): 15.4 nM | IF(17)-IF(2) (Pig pancreas trypsin [5]; substrate 1×10^-4 M): 16.9 | ATC hydrolysis solution (Pig pancreas trypsin [5]; substrate 2×10^-4 M): 1.81 µM/min | ATC working solution (Pig pancreas trypsin [5]; substrate 2×10^-4 M): 27.1 nM | IF(17)-IF(2) (Pig pancreas trypsin [5]; substrate 2×10^-4 M): 29.8 | ATC hydrolysis solution (Pig pancreas trypsin [5]; substrate 5×10^-4 M): 2.36 µM/min | ATC working solution (Pig pancreas trypsin [5]; substrate 5×10^-4 M): 35.4 nM | IF(17)-IF(2) (Pig pancreas trypsin [5]; substrate 5×10^-4 M): 38.9 | ATC hydrolysis solution (Pig pancreas trypsin [5]; substrate 10×10^-4 M): 2.57 µM/min | ATC working solution (Pig pancreas trypsin [5]; substrate 10×10^-4 M): 38.6 nM | IF(17)-IF(2) (Pig pancreas trypsin [5]; substrate 10×10^-4 M): 42.4 | affinity and activity compared with Bz-DL-Arg-AMC (Pig pancreas trypsin [5]; words): comparable with Bz-DL-Arg-AMC | repeatability (variation coefficient) (Pig pancreas trypsin [6]; at 0.42 μg/ml enzyme): 9.4% | repeatability (variation coefficient) (Pig pancreas trypsin [6]; at 0.84 μg/ml enzyme): 5.9% | repeatability (variation coefficient) (Pig pancreas trypsin [6]; at 6.67 μg/ml enzyme): 1.3% | gradient of calibration curve (Pig pancreas trypsin [6]; [8]): 2.45×10^-3 ±0.003×10^-3 | intercept of calibration curve (Pig pancreas trypsin [6]; [8]): 4.80×10^-3 ±2.53×10^-3 | quantification limit (Pig pancreas trypsin [6]; trypsin, ratio 3σb/a): 0.05 µg/mL
Structure (SMILES): COCCOCCOCc1cc(=O)oc2cc(NC(=O)[C@H](CCCNC(=N)N)NC(=O)OCc3ccccc3)ccc12 [Compound 14, N-carbobenzyloxy-L-arginyl-4-(2',5',8'-trioxanonyl)-7-coumarinylamide hydrochloride]
detection limit for trypsin compared with substrates derived from AMC (Pig pancreas trypsin [6]; words): of the same order of magnitude as that obtained with substrates derived from AMC

Structure (SMILES): Cc1cc(=O)oc2cc(NC(=O)[C@H](CCCNC(=N)N)NC(=O)OCc3ccccc3)ccc12 [Z--L--Arg--AMC]
Km (Pig pancreas trypsin [2]): 200 µM | kcat (Pig pancreas trypsin [2]): 0.89 s⁻¹ | kcat/Km (Pig pancreas trypsin [2]): 4500 M⁻¹ s⁻¹

Structure (SMILES): Cc1cc(=O)oc2cc(NC(=O)C(CCCNC(=N)N)NC(=O)c3ccccc3)ccc12 (racemic) [Bz--DL--Arg--AMC]
Km (Pig pancreas trypsin [2]): 250 µM | kcat (Pig pancreas trypsin [2]): 0.20 s⁻¹ | kcat/Km (Pig pancreas trypsin [2]): 800 M⁻¹ s⁻¹

Source: US5342970A, “Hydrosoluble coumarin derivatives, their preparation and their use as an enzyme substrate or for the preparation of such substrates” (priority 1991, dated 1994)
